Bounds are passed on as bounds.

The experiment addresses T1, human FXR (NR1H4) (Homo sapiens, UniProt Q96RI1).
T1 sequence (Q96RI1 1-486): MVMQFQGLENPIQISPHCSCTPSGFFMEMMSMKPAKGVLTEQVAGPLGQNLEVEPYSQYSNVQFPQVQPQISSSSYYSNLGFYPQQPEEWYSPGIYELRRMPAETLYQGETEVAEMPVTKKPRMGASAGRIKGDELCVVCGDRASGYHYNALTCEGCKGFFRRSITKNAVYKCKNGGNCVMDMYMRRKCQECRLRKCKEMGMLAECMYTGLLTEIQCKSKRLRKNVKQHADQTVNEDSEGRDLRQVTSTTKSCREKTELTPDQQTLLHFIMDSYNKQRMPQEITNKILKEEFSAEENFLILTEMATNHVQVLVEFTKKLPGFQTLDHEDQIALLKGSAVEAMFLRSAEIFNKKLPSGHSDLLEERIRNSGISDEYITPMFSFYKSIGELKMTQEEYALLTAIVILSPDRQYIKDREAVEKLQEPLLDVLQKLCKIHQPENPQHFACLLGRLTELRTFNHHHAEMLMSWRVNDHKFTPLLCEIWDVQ
The experiment in a line: Human FXR (NR1H4) Assay (Gal4 promoter driven luciferase reporter, Indigo Bioscience kit IB00601). The settings on record: FXR agonistic potency; CHO reporter cells expressing human NR1H4; 22 hours incubation; luciferase readout. In kind it is cell-based. The source says: Determination of a ligand mediated Gal4 promoter driven transactivation to quantify ligand binding mediated activation of FXR. FXR Reporter Assay kit purchased from Indigo Bioscience (Catalogue number: IB00601) to determine the potency and efficacy of compound developed by Enanta that can induce FXR activation. The principle application of this reporter assay system is to quantify functional activity of human FXR. The assay utilizes non-human mammalian cells, CHO (Chinese hamster ovary) cells engineered to express human NR1H4 protein (referred to as FXR). Reporter cells also incorporate the cDNA encoding beetle luciferase which catalyzes the substrates and yields photon emission. Luminescence intensity of the reaction is quantified using a plate-reading luminometer, Envision. Reporter Cells include the luciferase reporter gene functionally linked to an FXR responsive promoter. Thus, quantifying changes in luciferase expression in the treated reporter cells provides a sensitive surrogate measure of the changes in FXR activity. […] The assay is according to the manufacturer's instructions. In brief, the assay was performed in white, 96 well plates using final volume of 100 uL containing cells with different doses of compounds. Retrieve Reporter Cells from −80° C. storage. Perform a rapid thaw of the frozen cells by transferring a 10 ml volume of 37° C. cell recovery medium into the tube of frozen cells. Recap the tube of Reporter Cells and immediately place it in a 37° C. water bath for 5-10 minutes. Retrieve the tube of Reporter Cell Suspension from the water bath. Sanitize the outside surface of the tube with a 70% alcohol swab, and then transfer it into the cell culture hood. Dispense 90 μl of cell suspension into each well of the 96-well Assay Plate. Transfer the plate into 37° C. incubator, allowing the cells adherent to the bottom of the well. Dilute compounds in Dilution Plate (DP), and administrate to cells at Assay Plate (AP). DMSO content of the samples was kept at 0.2%. Cells were incubated for additional 22 hours before luciferase activities were measured. Thirty minutes before intending to quantify FXR activity, remove Detection Substrate and Detection Buffer from the refrigerator and place them in a low-light area so that they may equilibrate to room temperature. Remove the plate's lid and discard all media contents by ejecting it into an appropriate waste container. Gently tap the inverted plate onto a clean absorbent paper towel to remove residual droplets. Cells will remain tightly adhered to well bottoms. Add 100 μl of luciferase detection reagent to each well of the assay plate. Allow the assay plate to rest at room temperature for at least 5 minutes following the addition of LDR. Set the instrument (Envision) to perform a single 5 second “plate shake” prior to reading the first assay well. Read time may be 0.5 second (500 mSec) per well.

`CCCCOc1ccc(S(=O)(=O)NC(=O)OC[C@@H](C)[C@H]2CC[C@H]3[C@@H]4[C@H](O)[C@H](CC)[C@@H]5C[C@H](O)CC[C@]5(C)[C@H]4CC[C@]23C)cc1` [Example 21] returned an EC50 of 1 to 10 nM. In the case of `CC[C@H]1[C@@H](O)[C@@H]2[C@H](CC[C@]3(C)[C@@H]([C@H](C)COC(=O)NS(=O)(=O)c4ccc(OC5CCCC5)cc4)CC[C@@H]23)[C@@]2(C)CC[C@@H](O)C[C@@H]12` [Example 9] it was under 1 nM; in that of `CCC(CC)Oc1ccc(S(=O)(=O)NC(=O)OC[C@@H](C)[C@H]2CC[C@H]3[C@@H]4[C@H](O)[C@H](CC)[C@@H]5C[C@H](O)CC[C@]5(C)[C@H]4CC[C@]23C)cc1` [Example 19], 10 to 100 nM. With `CC[C@H]1[C@@H](O)[C@@H]2[C@H](CC[C@]3(C)[C@@H]([C@H](C)COC(=O)NS(=O)(=O)c4ccc5c(c4)CCC(C)(C)O5)CC[C@@H]23)[C@@]2(C)CC[C@@H](O)C[C@@H]12` [Example 5], the EC50 is under 1 nM. As for `CC[C@H]1[C@@H](O)[C@@H]2[C@H](CC[C@]3(C)[C@@H]([C@H](C)COC(=O)NS(=O)(=O)c4ccc5c(c4)CCC(C)(C)O5)CC[C@@H]23)[C@@]2(C)CCC(=O)C[C@@H]12` [Example 34], the figure is under 1 nM.

Values taken from patent US10472386B2, “Bile acid derivatives as FXR agonists and methods of use thereof” (priority 2017, dated 2019).
